Source: patent US20260306503A1, “(S)-2-HYDROXY-6-((4-(2-(2-HYDROXYETHYL)NICOTINOYL)MORPHOLIN-3-YL)METHOXY)BENZALDEHYD FOR USE IN THE TREATMENT OF SICKLE CELL DISEASE” (Global Blood Therapeutics, Inc., priority 2023, published 2026)

System: participants with SCD
Test: Preliminary blood analysis of SCD patients given oral Compound I, 300 mg QD for 14 days then 200 mg QD through Week 12 (Part A Sub Study 2);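 on Bilirubin total: values in mg/dL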
Format: in vivo, human
Details: for Bilirubin total: Day 0 (screening) 4.84
Method: Part A of this study is a Phase 2 randomized, open-label, dose-finding study in approximately 60 adult participants with SCD. The primary objective of Part A of this study is to assess the effects of Compound I in adult participants with SCD as measured by change in hemoglobin.
Participants are screened for eligibility in the study from Day −28 through Day −1. Eligible participants are randomized on Day 1 based on a 1:1 (100 mg: 150 mg) allocation and will receive their initial dose (loading dose) of Compound I. After completion of Day 1 assessments and subsequent loading doses, participants will continue with administration of their maintenance dose daily through Week 12.
Some newly enrolled participants in Part A will receive a loading dose regimen of 300 mg of Compound I once daily over the first 14 days. Participants will then receive 200 mg once daily maintenance doses through Week 12.

- Alkaline phosphatase (Patient B, Day 43, Day 0 (screening) 49.3): 67.6 IU/L
- Platelet count (Patient B, Day 43, Day 0 (screening) 360): 260 K/μL
- Absolute neutrophil (Patient B, Day 57, Day 0 (screening) 6.9): 5.5 K/μL
- Alkaline phosphatase (Patient B, Day 57, Day 0 (screening) 49.3): 69.6 IU/L
- Platelet count (Patient B, Day 57, Day 0 (screening) 360): 290 K/μL
- Absolute neutrophil (Patient B, Day 85, Day 0 (screening) 6.9): 5.6 K/μL
- Alkaline phosphatase (Patient B, Day 85, Day 0 (screening) 49.3): 72.6 IU/L
- Platelet count (Patient B, Day 85, Day 0 (screening) 360): 256 K/μL
- Alkaline phosphatase (Patient C, Day 1, Day 0 (screening) 52.4): 51.4 IU/L
- Absolute neutrophil (Patient C, Day 8, Day 0 (screening) 0.8): 6.7 K/μL
- Alkaline phosphatase (Patient C, Day 8, Day 0 (screening) 52.4): 61.5 IU/L
- Platelet count (Patient C, Day 8, Day 0 (screening) 392): 405 K/μL
- Absolute neutrophil (Patient C, Day 15, Day 0 (screening) 0.8): 3.9 K/μL
- Alkaline phosphatase (Patient C, Day 15, Day 0 (screening) 52.4): 54.4 IU/L
- Platelet count (Patient C, Day 15, Day 0 (screening) 392): 482 K/μL
- Absolute neutrophil (Patient C, Day 29, Day 0 (screening) 0.8): 2.6 K/μL
- Alkaline phosphatase (Patient C, Day 29, Day 0 (screening) 52.4): 51.4 IU/L
- Platelet count (Patient C, Day 29, Day 0 (screening) 392): 357 K/μL
- Absolute neutrophil (Patient C, Day 43, Day 0 (screening) 0.8): 1.0 K/μL
- Alkaline phosphatase (Patient C, Day 43, Day 0 (screening) 52.4): 58.5 IU/L
- Platelet count (Patient C, Day 43, Day 0 (screening) 392): 416 K/μL
- Absolute neutrophil (Patient C, Day 57, Day 0 (screening) 0.8): 4.3 K/μL
- Alkaline phosphatase (Patient C, Day 57, Day 0 (screening) 52.4): 56.4 IU/L
- Platelet count (Patient C, Day 57, Day 0 (screening) 392): 413 K/μL
- Absolute neutrophil (Patient C, Day 85, Day 0 (screening) 0.8): 4.9 K/μL
- Alkaline phosphatase (Patient C, Day 85, Day 0 (screening) 52.4): 55.4 IU/L
- Platelet count (Patient C, Day 85, Day 0 (screening) 392): 457 K/μL
Compound: O=Cc1c(O)cccc1OC[C@@H]1COCCN1C(=O)c1cccnc1CCO [Compound I, (S)-2-hydroxy-6-((4-(2-(2-hydroxyethyl)nicotinoyl)morpholin-3-yl)methoxy)benzaldehyde]
- Hematocrit (HCT) (Patient B, Day 43, Day 0 (screening) 23.5): 45.4%
- Aspartate Aminotransferase (AST) (Patient B, Day 43, Day 0 (screening) 41.1): 27.1 IU/L
- Lactate dehydrogenase (LDH) (Patient B, Day 43, Day 0 (screening) 371): 151 IU/L
- Bilirubin direct (Patient B, Day 57, Day 0 (screening) 0.18): 0.18 mg/dL
- Bilirubin indirect (Patient B, Day 57, Day 0 (screening) 4.66): 0.39 mg/dL
- Bilirubin total (Patient B, Day 57): 0.57 mg/dL
- Hemoglobin (HGB) (Patient B, Day 57, Day 0 (screening) 8.3): 14.3 g/dL
- Reticulocytes (Patient B, Day 57, Day 0 (screening) 11.5): 0.9%
- Alanine Aminotransferase (ALT) (Patient B, Day 57, Day 0 (screening) 22.0): 17.9 IU/L
- Hematocrit (HCT) (Patient B, Day 57, Day 0 (screening) 23.5): 42.6%
- Aspartate Aminotransferase (AST) (Patient B, Day 57, Day 0 (screening) 41.1): 26.2 IU/L
- Lactate dehydrogenase (LDH) (Patient B, Day 57, Day 0 (screening) 371): 152 IU/L
- Bilirubin direct (Patient B, Day 85, Day 0 (screening) 0.18): <0.01 mg/dL
- Bilirubin total (Patient B, Day 85): 0.94 mg/dL
- Hemoglobin (HGB) (Patient B, Day 85, Day 0 (screening) 8.3): 14.9 g/dL
- Reticulocytes (Patient B, Day 85, Day 0 (screening) 11.5): 1.1%
- Alanine Aminotransferase (ALT) (Patient B, Day 85, Day 0 (screening) 22.0): 20.0 IU/L
- Hematocrit (HCT) (Patient B, Day 85, Day 0 (screening) 23.5): 43.7%
- Aspartate Aminotransferase (AST) (Patient B, Day 85, Day 0 (screening) 41.1): 27.1 IU/L
- Lactate dehydrogenase (LDH) (Patient B, Day 85, Day 0 (screening) 371): 141 IU/L
- Bilirubin direct (Patient C, Day 1, Day 0 (screening) 0.58): 0.58 mg/dL
- Bilirubin indirect (Patient C, Day 1, Day 0 (screening) 4.26): 4.87 mg/dL
- Bilirubin total (Patient C, Day 1): 5.45 mg/dL
- Alanine Aminotransferase (ALT) (Patient C, Day 1, Day 0 (screening) 20.0): 24.8 IU/L
- Aspartate Aminotransferase (AST) (Patient C, Day 1, Day 0 (screening) 48.0): 62.0 IU/L
- Lactate dehydrogenase (LDH) (Patient C, Day 1, Day 0 (screening) 533): 691 IU/L
- Bilirubin direct (Patient C, Day 8, Day 0 (screening) 0.58): 0.38 mg/dL
- Bilirubin indirect (Patient C, Day 8, Day 0 (screening) 4.26): 3.85 mg/dL
- Bilirubin total (Patient C, Day 8): 4.23 mg/dL
- Hemoglobin (HGB) (Patient C, Day 8, Day 0 (screening) 7.1): 9.1 g/dL
- Reticulocytes (Patient C, Day 8, Day 0 (screening) 13.7): 9.9%
- Alanine Aminotransferase (ALT) (Patient C, Day 8, Day 0 (screening) 20.0): 28.9 IU/L
- Hematocrit (HCT) (Patient C, Day 8, Day 0 (screening) 21.0): 25.9%
- Aspartate Aminotransferase (AST) (Patient C, Day 8, Day 0 (screening) 48.0): 57.0 IU/L
- Lactate dehydrogenase (LDH) (Patient C, Day 8, Day 0 (screening) 533): 545 IU/L
- Bilirubin direct (Patient C, Day 15, Day 0 (screening) 0.58): 0.38 mg/dL
- Bilirubin indirect (Patient C, Day 15, Day 0 (screening) 4.26): 3.12 mg/dL
- Bilirubin total (Patient C, Day 15): 3.50 mg/dL
- Hemoglobin (HGB) (Patient C, Day 15, Day 0 (screening) 7.1): 10.2 g/dL
- Reticulocytes (Patient C, Day 15, Day 0 (screening) 13.7): 5.0%
- Alanine Aminotransferase (ALT) (Patient C, Day 15, Day 0 (screening) 20.0): 18.6 IU/L
- Hematocrit (HCT) (Patient C, Day 15, Day 0 (screening) 21.0): 29.8%
- Aspartate Aminotransferase (AST) (Patient C, Day 15, Day 0 (screening) 48.0): 34.1 IU/L
- Lactate dehydrogenase (LDH) (Patient C, Day 15, Day 0 (screening) 533): 327 IU/L
- Bilirubin direct (Patient C, Day 29, Day 0 (screening) 0.58): 0.38 mg/dL
- Bilirubin indirect (Patient C, Day 29, Day 0 (screening) 4.26): 2.51 mg/dL
- Bilirubin total (Patient C, Day 29): 2.89 mg/dL
- Hemoglobin (HGB) (Patient C, Day 29, Day 0 (screening) 7.1): 11.6 g/dL
- Reticulocytes (Patient C, Day 29, Day 0 (screening) 13.7): 1.8%
- Alanine Aminotransferase (ALT) (Patient C, Day 29, Day 0 (screening) 20.0): 17.2 IU/L
- Hematocrit (HCT) (Patient C, Day 29, Day 0 (screening) 21.0): 33.9%
- Aspartate Aminotransferase (AST) (Patient C, Day 29, Day 0 (screening) 48.0): 39.1 IU/L
- Lactate dehydrogenase (LDH) (Patient C, Day 29, Day 0 (screening) 533): 256 IU/L
- Bilirubin direct (Patient C, Day 43, Day 0 (screening) 0.58): 0.28 mg/dL
- Bilirubin indirect (Patient C, Day 43, Day 0 (screening) 4.26): 4.44 mg/dL
- Bilirubin total (Patient C, Day 43): 4.72 mg/dL
- Hemoglobin (HGB) (Patient C, Day 43, Day 0 (screening) 7.1): 10.5 g/dL
- Reticulocytes (Patient C, Day 43, Day 0 (screening) 13.7): 2.8%
- Alanine Aminotransferase (ALT) (Patient C, Day 43, Day 0 (screening) 20.0): 26.8 IU/L
- Hematocrit (HCT) (Patient C, Day 43, Day 0 (screening) 21.0): 30.1%
- Aspartate Aminotransferase (AST) (Patient C, Day 43, Day 0 (screening) 48.0): 46.1 IU/L
- Lactate dehydrogenase (LDH) (Patient C, Day 43, Day 0 (screening) 533): 291 IU/L
- Bilirubin direct (Patient C, Day 57, Day 0 (screening) 0.58): 0.18 mg/dL
- Bilirubin indirect (Patient C, Day 57, Day 0 (screening) 4.26): 3.44 mg/dL
- Bilirubin total (Patient C, Day 57): 3.62 mg/dL
- Hemoglobin (HGB) (Patient C, Day 57, Day 0 (screening) 7.1): 10.4 g/dL
- Reticulocytes (Patient C, Day 57, Day 0 (screening) 13.7): 4.2%
- Alanine Aminotransferase (ALT) (Patient C, Day 57, Day 0 (screening) 20.0): 21.3 IU/L
- Hematocrit (HCT) (Patient C, Day 57, Day 0 (screening) 21.0): 28.9%
- Aspartate Aminotransferase (AST) (Patient C, Day 57, Day 0 (screening) 48.0): 46.1 IU/L
- Lactate dehydrogenase (LDH) (Patient C, Day 57, Day 0 (screening) 533): 296 IU/L
- Bilirubin direct (Patient C, Day 85, Day 0 (screening) 0.58): <0.01 mg/dL
- Bilirubin total (Patient C, Day 85): 3.62 mg/dL
- Hemoglobin (HGB) (Patient C, Day 85, Day 0 (screening) 7.1): 10.0 g/dL
- Reticulocytes (Patient C, Day 85, Day 0 (screening) 13.7): 5.9%
- Alanine Aminotransferase (ALT) (Patient C, Day 85, Day 0 (screening) 20.0): 20.6 IU/L
- Hematocrit (HCT) (Patient C, Day 85, Day 0 (screening) 21.0): 28.2%
- Aspartate Aminotransferase (AST) (Patient C, Day 85, Day 0 (screening) 48.0): 39.1 IU/L
- Lactate dehydrogenase (LDH) (Patient C, Day 85, Day 0 (screening) 533): 276 IU/L
